Some results are limits rather than exact numbers.

Series [1] concerns tubulin. In words: Inhibition of tubulin polymerization (assembly assay). The settings on record: tubulin at 10 μM, read-out: Tubulin IC50 ± SD. The series is classed as biochemical. Here is the method: (§1) The assembly reaction mixtures contained 0.8 M monosodium glutamate (pH 6.6 with HCl in a 2 M stock solution), 10 μM tubulin, 4% (v/v) DMSO, and varying concentrations of the drug. Following a 15 min preincubation at 30 °C, samples were chilled on ice, GTP to 0.4 mM was added, and turbidity development was followed at 350 nm in a temperature-controlled recording spectrophotometer for 20 min at 30 °C. The extent of reaction was measured. Full experimental details were previously described.[63] For the colchicine binding assay, reaction mixtures contained 1.0 μM tubulin, 5.0 μM [^3H]colchicine, and 5.0 or 1.0 μM inhibitor and were incubated for 10 min at 37 °C. Complete details were described previously.[64]

For series [2], the system named is MCF-7 human breast carcinoma cells. Briefly: Inhibition of the growth of MCF-7 human breast carcinoma cells. It is filed as cell-based. The settings on record: for IC50: Homo sapiens, MCF7, inhibition of cell growth, cells grown for 96 h, read-out: MCF-7 IC50 ± SD. The procedure:
The methodology for the evaluation of the growth of human MCF-7 breast carcinoma cells was previously described, except that cells were grown for 96 h for IC50 determinations.[66] U-87 MG and OVCAR-3 proliferation assays were performed plating 10^4 cells/cm^2 in a Multiwell 24. The day after, cells were treated with compound 15, and DMSO was used as a control. Cells were counted 48 h later with a Bürker counting chamber, after dilution in TrypanBlue (#T6146 Sigma-Aldrich).

Series [3] concerns tubulin. Briefly: Inhibition of [3H]colchicine binding to tubulin. The settings on record: for Inhib. colch. binding 1-5-5 (% ± SD): inhibitor at 1:5:5 μM. Here is the method:
as §1

Series [4] in a line: Metabolic stability in human liver microsomes. The series is classed as in vitro ADME. The settings on record: HLM 0.5 mg/mL, 1 μM, n = 2. The procedure: (§2) Mouse (Sigma Aldrich, CD-1 male, pooled) and human microsomes (Sigma Aldrich, human, pooled) at 0.5 mg/mL were preincubated with the test compound 15 dissolved in DMSO at 1 μM in phosphate buffer 50 mM, pH 7.4, and 3 mM MgCl2 for 10 min at 37 °C. The reaction was then started by adding the cofactor mixture solution (NADP, glucose-6-phosphate, glucose-6-phosphate dehydrogenase in 2% NaHCO3). Samples were taken at 0, 10, 30, 45, and 60 min and added to acetonitrile to stop the reaction. Samples were then centrifuged, and the supernatant was analyzed by LC–MS/MS to quantify the amount of the compound. A control sample without the cofactor was always added to check the chemical stability of the test compound. […] A fixed concentration of verapamil was added in every sample as an internal standard for LC–MS/MS analyses. The percentage of the area of the test compound remaining at the various incubation times was calculated with respect to the area of the compound at time 0 min.
(§3) The rate constant, k (min^–1), derived for the exponential decay equation (peak area/IS vs time), was used to calculate the rate of Cli.
(§4) Samples were analyzed under the following conditions: UPLC Waters coupled with an API 3200 triple-quadrupole (ABSciex); eluents, (phase A) 95% water, 5% acetonitrile + 0.1% HCOOH, (phase B) 5% water, 95% acetonitrile + 0.1% HCOOH; flow rate, 0.3 mL/min; column, Gemini-Nx 5 μm C18 110A (50 × 2.00 mm) at 35 °C; injection volume, 10 μL. Source conditions ESI positive: T 400 °C, Gas 1 30, Gas 2 35, CUR 30, IS 5500, CAD 5.
In general terms: Microsomes from liver hold many membrane-bound enzymes, among them those of drug oxidation.

Series [5] can be described thus: Metabolic stability in mouse liver microsomes. The series is classed as in vitro ADME. The settings on record: MLM 0.5 mg/mL, 1 μM, n = 2. The procedure: as §2, §3, §4

What is called IC50 is the point on the concentration scale where inhibition reaches its midpoint. As for `COc1cc(C(=O)c2cn(-c3ccncc3)cc2-c2ccco2)cc(OC)c1OC` [Compound 11, (4-(Furan-2-yl)-1-(pyridin-4-yl)-1H-pyrrol-3-yl)(3,4,5-trimethoxyphenyl)methanone], the IC50 in the series on tubulin [1] turned out to be 3800 ± 700 nM. In addition, in series [2], the “Inhibition of MCF-7 cell growth (in words)” value (“Inhibition … (in words)” for short) is recorded as “weak inhibitors” and the IC50 came out at 500 ± 70 nM. Also, the “Inhib. colch. binding 1-5-5 (% ± SD)” value in the series on tubulin [3] was found to be 35 ± 3%.
Turning to `COc1cc(C(=O)c2cn(-c3ccccn3)cc2-c2ccco2)cc(OC)c1OC` [Compound 9, (4-(Furan-2-yl)-1-(pyridin-2-yl)-1H-pyrrol-3-yl)(3,4,5-trimethoxyphenyl)methanone], the values for the IC50 (with tubulin [1]; in series [2]) were 740 nM and 18 ± 4 nM, respectively. In the series on tubulin [3] (inhibitor at 1:5:1 μM, 1 µM), the “Inhibition of [3H]colchicine binding 1:5:1” value was 69%. Also, the “Inhib. colch. binding 1-5-5 (% ± SD)” value in the series on tubulin [3] worked out at 95 ± 0.9%.
As a reminder, the melting point is the temperature, or range, at which the solid turns liquid. As to `COc1cc(C(=O)c2cn(-c3cccnc3)cc2-c2ccccc2)cc(OC)c1OC` [Compound 7, (4-Phenyl-1-(pyridin-3-yl)-1H-pyrrol-3-yl)(3,4,5-trimethoxyphenyl)methanone], the melting point was in the range of 171 to 173 °C. Besides, the IC50 in the series with tubulin [1] came out at 740 ± 10 nM. Besides, the 50% inhibitory concentration (IC50) in series [2] is 50 ± 10 nM. The “Inhib. colch. binding 1-5-5 (% ± SD)” value in the series with tubulin [3] amounted to 52 ± 5%.
The matching figures for `COc1cc(C(=O)c2ccn(-c3ccccn3)c2)cc(OC)c1OC` [Compound 2, (1-(Pyridin-2-yl)-1H-pyrrol-3-yl)(3,4,5-trimethoxyphenyl)methanone]: 120 to 125 °C, 480 ± 100 nM, 1100 ± 300 nM and 83 ± 0.4%.
As to `COc1cc(C(=O)c2cn(-c3cccnc3)cc2-c2ccco2)cc(OC)c1OC` [Compound 10, (4-(Furan-2-yl)-1-(pyridin-3-yl)-1H-pyrrol-3-yl)(3,4,5-trimethoxyphenyl)methanone], the IC50 is 1100 ± 20 nM in the series on tubulin [1] and 39 ± 2 nM in series [2]. The “Inhib. colch. binding 1-5-5 (% ± SD)” value in the series on tubulin [3] amounted to 77 ± 0.1%.
For the molecule `COc1cc(C(=O)c2cn(-c3cncnc3)cc2-c2ccccc2)cc(OC)c1OC` [Compound 14, (4-Phenyl-1-(pyrimidin-5-yl)-1H-pyrrol-3-yl)(3,4,5-trimethoxyphenyl)methanone], the values for the IC50 (in the series with tubulin [1]; in series [2]) were over 20000 nM and over 5000 nM, respectively. Further, in series [2], the “Inhibition … (in words)” value is “poor inhibitors”. In addition, in the series with tubulin [3], the “Inhib. colch. binding 1-5-5 (% ± SD)” value turned out to be 4.7 ± 5%.
The corresponding values for `COc1cc(C(=O)c2cn(-c3cnccn3)cc2-c2ccco2)cc(OC)c1OC` [Compound 12, (4-(Furan-2-yl)-1-(pyrazin-2-yl)-1H-pyrrol-3-yl)(3,4,5-trimethoxyphenyl)methanone] are 910 ± 50 nM, 29 ± 1 nM, “strong inhibition” and 86 ± 2%.
The matching figures for `COc1cc(C(=O)c2cn(-c3cncnc3)cc2-c2ccco2)cc(OC)c1OC` [Compound 16, (4-(Furan-2-yl)-1-(pyrimidin-5-yl)-1H-pyrrol-3-yl)(3,4,5-trimethoxyphenyl)methanone]: 6700 ± 900 nM, 580 ± 30 nM, “poor inhibitors” and 19 ± 2%.
For `COc1cc(C(=O)c2ccn(-c3cccnc3)c2)cc(OC)c1OC` [Compound 3, (1-(Pyridin-3-yl)-1H-pyrrol-3-yl)(3,4,5-trimethoxyphenyl)methanone], the results for the IC50 (in the series with tubulin [1]; in series [2]) were 1200 ± 100 nM and 2500 ± 70 nM, respectively. Moreover, the “Inhib. colch. binding 1-5-5 (% ± SD)” value in the series on tubulin [3] is given as 38 ± 3%.
Consider `COc1cc(C(=O)c2cn(-c3ncccn3)cc2-c2ccccc2)cc(OC)c1OC` [Compound 13, (4-Phenyl-1-(pyrimidin-2-yl)-1H-pyrrol-3-yl)(3,4,5-trimethoxyphenyl)methanone], for which the results for the IC50 (in the series on tubulin [1]; in series [2]) were 690 ± 100 nM and 25 ± 8 nM, respectively. For the same molecule, the “Inhibition … (in words)” value in series [2] is on record as “strong inhibition”. Further, the “Inhib. colch. binding 1-5-5 (% ± SD)” value in the series on tubulin [3] is recorded as 88 ± 2%.
Consider `COc1cc(C(=O)c2cn(-c3ccccn3)cc2-c2ccccc2)cc(OC)c1OC` [Compound 6, (4-Phenyl-1-(pyridin-2-yl)-1H-pyrrol-3-yl)(3,4,5-trimethoxyphenyl)methanone], for which the melting point was 150 to 152 °C. In the series on tubulin [1], the IC50 was 430 ± 1 nM. Besides, in series [2], the IC50 is 18 ± 2 nM. For the same molecule, the “Inhib. colch. binding 1-5-5 (% ± SD)” value in the series on tubulin [3] is recorded as 92 ± 0.5%.
`COc1cc(C(=O)c2cn(-c3ccncc3)cc2-c2ccccc2)cc(OC)c1OC` [Compound 8, (4-Phenyl-1-(pyridin-4-yl)-1H-pyrrol-3-yl)(3,4,5-trimethoxyphenyl)methanone]: the IC50 in the series on tubulin [1] worked out at 6700 ± 100 nM. In addition, in series [2], the “Inhibition … (in words)” value is reported as “weak inhibitors” and the IC50 came to 2700 ± 500 nM. Moreover, the “Inhib. colch. binding 1-5-5 (% ± SD)” value in the series with tubulin [3] worked out at 17 ± 4%.
For `COc1cc(C(=O)c2ccn(-c3ccncc3)c2)cc(OC)c1OC` [Compound 4, (1-(Pyridin-4-yl)-1H-pyrrol-3-yl)(3,4,5-trimethoxyphenyl)methanone], the IC50 with tubulin [1] is over 20000 nM; in series [2], 2500 ± 70 nM. Further, the “Inhib. colch. binding 1-5-5 (% ± SD)” value in the series on tubulin [3] is 1.4 ± 5%.
Turning to `CCOc1ccc2ccc(=O)oc2c1` [Compound 7-EC, 7-ethoxycoumarin, reference compound], the results for the “Cli ± SD” value in series [4] and in series [5] were 231.3 ± 37.5 μL/min/mg protein and 710.8 ± 1.2 μL/min/mg protein, respectively. Further, the “t1/2 ± SD” value in series [4] was found to be 6.1 ± 1.0 min. In addition, the half-life at 1 h, 1 µM in series [5] (male, CD-1, mouse, liver microsomes, pH 7.4, read-out: t1/2 ± SD) was 2 ± 0.1 min.
On to `COc1cc(C(=O)c2ccn(-c3ncccn3)c2)cc(OC)c1OC` [Compound 5, (1-(Pyrimidin-2-yl)-1H-pyrrol-3-yl)(3,4,5-trimethoxyphenyl)methanone], for which the IC50 in the series on tubulin [1] was 490 ± 10 nM; in series [2], 220 nM. Moreover, the “Inhib. colch. binding 1-5-5 (% ± SD)” value in the series with tubulin [3] was 82 ± 1%.

(Values after article PMC9743090, “Induction of Ferroptosis in Glioblastoma and Ovarian Cancers by a New Pyrrole Tubulin Assembly Inhibitor” (Journal of Medicinal Chemistry, 2022).)
